According to ChEMBL document CHEMBL2046307, “Plumbagin induces apoptosis in Her2-overexpressing breast cancer cells through the mitochondrial-mediated pathway” (J Nat Prod, 2012):
The source made the active and inactive calls. The calls are words filed in the database; no cut-off is given here.

Tests used:
SK-BR-3 [1] = assay: Induction of cell cycle arrest in Her2-overexpressing human SKBR3 cells assessed as increase in DNA accumulation at subG1 phase at 10 uM after 24 hrs by propidium iodide staining-based flow cytometric analysis (reference value: 11%); type: functional
SK-BR-3 [2] = assay: Induction of apoptosis in Her2-overexpressing human SKBR3 cells assessed as increase in caspase activity after 6 hrs by fluorescence analysis; type: functional, cell-based
SK-BR-3 [3] = assay: Induction of cell cycle arrest in Her2-overexpressing human SKBR3 cells assessed as increase in DNA accumulation at subG1 phase at 2.5 uM after 24 hrs by propidium iodide staining-based flow cytometric analysis (reference value: 11%); type: functional
SK-BR-3 [4] = assay: Cytotoxicity against Her2-overexpressing human SKBR3 cells after 24 to 72 hrs by MTT assay; type: functional, cell-based
SK-BR-3 [5] = assay: Induction of cell cycle arrest in Her2-overexpressing human SKBR3 cells assessed as increase in DNA accumulation at subG1 phase at 5 uM after 24 hrs by propidium iodide staining-based flow cytometric analysis (reference value: 11%); type: functional
BT-474 [6] = assay: Anticlonogenic activity in Her2-overexpressing human BT474 cells assessed as inhibition of colony formation at 1 uM after 6 hrs followed by washout measured after 16 days by crystal violet staining; type: functional
BT-474 [7] = assay: Induction of apoptosis in Her2-overexpressing human BT474 cells assessed as accumulation at subG1 phase by propidium iodide staining-based flow cytometric analysis; type: functional, cell-based
SK-BR-3 [8] = assay: Induction of apoptosis in Her2-overexpressing human SKBR3 cells assessed as increase in BaK protein level after 24 hrs by Western blot analysis; type: functional, cell-based
SK-BR-3 [9] = assay: Cytotoxicity against Her2-overexpressing human SKBR3 cells after 24 hrs by MTT assay; type: functional, cell-based; details: SK-BR-3, 24 h
BT-474 [10] = assay: Induction of apoptosis in Her2-overexpressing human BT474 cells assessed as increase in Bax protein level after 24 hrs by Western blot analysis; type: functional, cell-based
BT-474 [11] = assay: Anticlonogenic activity in Her2-overexpressing human BT474 cells assessed as inhibition of colony formation after 6 hrs followed by washout measured after 16 days by crystal violet staining; type: functional, cell-based
BT-474 [12] = assay: Cytotoxicity against Her2-overexpressing human BT474 cells after 72 hrs by MTT assay; type: functional, cell-based; details: BT-474, 72 h
SK-BR-3 [13] = assay: Anticlonogenic activity in Her2-overexpressing human SKBR3 cells assessed as inhibition of colony formation at 1 uM after 6 hrs followed by washout measured after 16 days by crystal violet staining; type: functional
BT-474 [14] = assay: Cytotoxicity against Her2-overexpressing human BT474 cells after 24 hrs by MTT assay; type: functional, cell-based; details: BT-474, 24 h
SK-BR-3 [15] = assay: Induction of apoptosis in Her2-overexpressing human SKBR3 cells assessed as increase in caspase activity after 6 hrs by fluorescence analysis relative to control; type: functional
SK-BR-3 [16] = assay: Induction of apoptosis in Her2-overexpressing human SKBR3 cells assessed as increase in Bax protein level after 24 hrs by Western blot analysis; type: functional, cell-based
BT-474 [17] = assay: Cytotoxicity against Her2-overexpressing human BT474 cells after 24 to 72 hrs by MTT assay; type: functional, cell-based
MDA-MB-231 = assay: Antitumor activity against human MDA-MB-231 cells xenografted in nude mouse assessed as decrease in tumor volume; type: functional; set-up: scale not given: the % may be the effect or the level left
BT-474 [18] = assay: Induction of apoptosis in Her2-overexpressing human BT474 cells assessed as increase in caspase activity at 10 uM after 6 hrs by fluorescence analysis relative to control; type: functional
BT-474 [19] = assay: Induction of apoptosis in Her2-overexpressing human BT474 cells assessed as increase in BaK protein level after 24 hrs by Western blot analysis; type: functional, cell-based
SK-BR-3 [20] = assay: Induction of apoptosis in Her2-overexpressing human SKBR3 cells assessed as decrease in Bcl-2 protein level after 24 hrs by Western blot analysis; type: functional, cell-based
SK-BR-3 [21] = assay: Induction of cell cycle arrest in Her2-overexpressing human SKBR3 cells assessed as increase in DNA accumulation at subG1 phase after 24 hrs by propidium iodide staining-based flow cytometric analysis; type: functional
BT-474 [22] = assay: Ratio of IC50 for Her2-overexpressing human BT474 cells after 24 hrs to IC50 for Her2-overexpressing human BT474 cells after 72 hrs; type: functional
BT-474 [23] = assay: Induction of apoptosis in Her2-overexpressing human BT474 cells assessed as increase in caspase activity after 6 hrs by fluorescence analysis; type: functional, cell-based
BT-474 [24] = assay: Induction of apoptosis in Her2-overexpressing human BT474 cells assessed as decrease in Bcl-2 protein level after 24 hrs by Western blot analysis; type: functional, cell-based
SK-BR-3 [25] = assay: Cytotoxicity against Her2-overexpressing human SKBR3 cells after 72 hrs by MTT assay; type: functional, cell-based; details: SK-BR-3, 72 h
SK-BR-3 [26] = assay: Anticlonogenic activity in Her2-overexpressing human SKBR3 cells assessed as inhibition of colony formation after 6 hrs followed by washout measured after 16 days by crystal violet staining; type: functional, cell-based

SMILES: CC1=CC(=O)c2c(O)cccc2C1=O [PLUMBAGIN]
- Activity (SK-BR-3 [1]): 73%
- Activity (SK-BR-3 [2]): Dose-dependent effect
- Activity (SK-BR-3 [3]): 20%
- Activity (SK-BR-3 [4]): Dose-dependent effect
- Activity (SK-BR-3 [5]): 43%
- inhibition at 1 µM (BT-474 [6]): 40%
- Activity (BT-474 [7]): inactive
- Activity (SK-BR-3 [8]): Dose-dependent effect
- IC50 (SK-BR-3 [9]): 3.2 µM
- Activity (BT-474 [10]): Dose-dependent effect
- Activity (BT-474 [11]): Dose-dependent effect
- IC50 (BT-474 [12]): 0.8 µM
- inhibition at 1 µM (SK-BR-3 [13]): 50%
- IC50 (BT-474 [14]): 1.8 µM
- fold change (FC) (SK-BR-3 [15]): 4
- Activity (SK-BR-3 [16]): Dose-dependent effect
- Activity (BT-474 [17]): Dose-dependent effect
- Activity (MDA-MB-231): 70%
- fold change (FC) (BT-474 [18]): 5
- Activity (BT-474 [19]): Dose-dependent effect
- Activity (SK-BR-3 [20]): Active
- Activity (SK-BR-3 [21]): Dose-dependent effect
- Ratio IC50 (BT-474 [22]): 2
- Activity (BT-474 [23]): Dose-dependent effect
- Activity (BT-474 [24]): Active
- IC50 (SK-BR-3 [25]): 1.8 µM
- Activity (SK-BR-3 [26]): Dose-dependent effect
